Columns and labels:
Entero. faecalis L 562 = experiment: MIC, microbroth dilution, Entero. faecalis L 562; format: cell-based, Enterococcus faecalis
[1] = tested on: Enterococcus faecium L 564; experiment: MIC, glycopeptide-resistant Enterococcus faecium L 564; format: cell-based
[2] = tested on: Enterococcus faecium L 565; experiment: MIC, glycopeptide-resistant Enterococcus faecium L 565; format: cell-based
[3] = tested on: Enterococcus faecium L 569; experiment: MIC, glycopeptide-resistant Enterococcus faecium L 569; format: cell-based
[4] = tested on: Enterococcus faecium L 1650; experiment: MIC, glycopeptide-resistant Enterococcus faecium L 1650; format: cell-based
[5] = tested on: Enterococcus faecium L 1652; experiment: MIC, glycopeptide-resistant Enterococcus faecium L 1652; format: cell-based
[6] = tested on: Enterococcus faecium L 1666; experiment: MIC, glycopeptide-resistant Enterococcus faecium L 1666; format: cell-based
[7] = tested on: Enterococcus faecium L 1680; experiment: MIC, glycopeptide-resistant Enterococcus faecium L 1680; format: cell-based
[8] = tested on: Enterococcus faecium L 1681; experiment: MIC, glycopeptide-resistant Enterococcus faecium L 1681; format: cell-based
[9] = tested on: Enterococcus faecium L 1683; experiment: MIC, glycopeptide-resistant Enterococcus faecium L 1683; format: cell-based
[10] = tested on: Enterococcus faecium L 1686; experiment: MIC, glycopeptide-resistant Enterococcus faecium L 1686; format: cell-based
[11] = tested on: highly glycopeptide-resistant enterococci; experiment: in vitro activity against highly glycopeptide-resistant enterococci (summary); format: cell-based
Staph. aureus L 165 = experiment: MIC, microbroth dilution, Staph. aureus L 165; format: cell-based; conditions: Table II
Staph. aureus L 561 = experiment: MIC, microbroth dilution, Staph. aureus L 561; format: cell-based; conditions: Table II
Staph. epidermidis L 147 = experiment: MIC, microbroth dilution, Staph. epidermidis L 147; format: cell-based; conditions: Table II
Staph. epidermidis L 533 = experiment: MIC, microbroth dilution, Staph. epidermidis L 533; format: cell-based; conditions: Table II
[12] = tested on: Staph. haemolyticus L 602; experiment: MIC, microbroth dilution, Staph. haemolyticus L 602; format: cell-based; conditions: Table II
Strep. pyogenes L 49 = experiment: MIC, microbroth dilution, Strep. pyogenes L 49; format: cell-based; conditions: Table II
Strep. pneumoniae L 44 = experiment: MIC, microbroth dilution, Strep. pneumoniae L 44; format: cell-based; conditions: Table II
Entero. faecalis L 149 = experiment: MIC, microbroth dilution, Entero. faecalis L 149; format: cell-based; conditions: Table II
Neisseria gonorrh. L 997 = experiment: MIC, microbroth dilution, Neisseria gonorrh. L 997; format: cell-based, Neisseria gonorrhoeae; conditions: Table II
Esch. coli L 47 = experiment: MIC, microbroth dilution, Esch. coli L 47; format: cell-based; conditions: Table II
Pseudomonas aerug. L 4 = experiment: MIC, microbroth dilution, Pseudomonas aerug. L 4; format: cell-based; conditions: Table II
Proteus vulgaris L 79 = experiment: MIC, microbroth dilution, Proteus vulgaris L 79; format: cell-based; conditions: Table II
[13] = tested on: Enterococcus faecalis L 560; experiment: MIC, glycopeptide-resistant Enterococcus faecalis L 560; format: cell-based; conditions: Table III
[14] = tested on: Enterococcus faecalis L 563; experiment: MIC, glycopeptide-resistant Enterococcus faecalis L 563; format: cell-based; conditions: Table III
Strep. pyogenes C 203 = experiment: experimental streptococcal septicemia in mice; format: in vivo; conditions: Strep. pyogenes C 203 septicemia, adm. route sc
Source text: The experiments have been carried out according to the procedure described by V. Arioli et al., Journal of Antibiotics 29, 511 (1976).

## CN[C@H](CC(C)C)C(=O)N[C@H]1C(=O)N[C@@H](CC(N)=O)C(=O)N[C@H]2C(=O)N[C@H]3C(=O)N[C@H](C(=O)N[C@H](C(=O)O)c4cc(O)cc(O)c4-c4cc3ccc4O)[C@H](O)c3ccc(c(Cl)c3)Oc3cc2cc(c3O[C@@H]2O[C@H](CO)[C@@H](O)[C@H](O)[C@H]2O[C@H]2C[C@](C)(N)[C@H](O)[C@H](C)O2)Oc2ccc(cc2Cl)[C@H]1O [VANCOMYCIN, vancomycin]
Entero. faecalis L 562; Enterococcus faecalis, L562
  MIC: > 128 µg/mL
[1]; Enterococcus faecium, L564
  MIC: > 128 µg/mL
[2]; Enterococcus faecium, L565
  MIC: > 128 µg/mL
[3]; Enterococcus faecium, L569
  MIC: > 128 µg/mL
[4]; Enterococcus faecium, L1650
  MIC: > 128 µg/mL
[5]; Enterococcus faecium, L1652
  MIC: > 128 µg/mL
[6]; Enterococcus faecium, L1666
  MIC: > 128 µg/mL
[7]; Enterococcus faecium, L1680
  MIC: > 128 µg/mL
[8]; Enterococcus faecium, L1681
  MIC: > 128 µg/mL
[9]; Enterococcus faecium, L1683
  MIC: > 128 µg/mL
[10]; Enterococcus faecium, L1686
  MIC: > 128 µg/mL
[11]
  in vitro activity / resistance in words: highly resistant

## teicoplanin
Staph. aureus L 165
  MIC: 0.25 µg/mL
Staph. aureus L 561
  MIC: 8 µg/mL
Staph. epidermidis L 147
  MIC: 4 µg/mL
Staph. epidermidis L 533
  MIC: 8 µg/mL
[12]
  MIC: 32 µg/mL
Strep. pyogenes L 49
  MIC: 0.13 µg/mL
Strep. pneumoniae L 44
  MIC: 0.06 µg/mL
Entero. faecalis L 149
  MIC: 0.13 µg/mL
Entero. faecalis L 562; Entero. faecalis L 562, Table II
  MIC: > 128 µg/mL
Entero. faecalis L 562; Enterococcus faecalis L 562, Table III
  MIC: > 128 µg/mL
Neisseria gonorrh. L 997
  MIC: 32 µg/mL
Esch. coli L 47
  MIC: > 128 µg/mL
Pseudomonas aerug. L 4
  MIC: > 128 µg/mL
Proteus vulgaris L 79
  MIC: > 128 µg/mL
[13]
  MIC: > 128 µg/mL
[14]
  MIC: > 128 µg/mL
[1]; Enterococcus faecium L 564, Table III
  MIC: > 128 µg/mL
[2]; Enterococcus faecium L 565, Table III
  MIC: > 128 µg/mL
[3]; Enterococcus faecium L 569, Table III
  MIC: > 128 µg/mL
[4]; Enterococcus faecium L 1650, Table III
  MIC: > 128 µg/mL
[5]; Enterococcus faecium L 1652, Table III
  MIC: > 128 µg/mL
[6]; Enterococcus faecium L 1666, Table III
  MIC: > 128 µg/mL
[7]; Enterococcus faecium L 1680, Table III
  MIC: > 128 µg/mL
[8]; Enterococcus faecium L 1681, Table III
  MIC: > 128 µg/mL
[9]; Enterococcus faecium L 1683, Table III
  MIC: > 128 µg/mL
[10]; Enterococcus faecium L 1686, Table III
  MIC: > 128 µg/mL
Strep. pyogenes C 203
  ED50: 0.16 mg/kg
[11]
  in vitro activity / resistance in words: highly resistant
